Laboratory results as given in ChEMBL document CHEMBL1201862, “PubChem BioAssay data set” (2004).
Activity calls are given as the source filed them.

Columns and labels:
[1] = enhancers of respiration in Yfh1-depleted yeast, dose response, Friedreich's ataxia, plus single-dose screen (AID 1465); format: functional;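 also: yeast depleted of Yfh1p frataxin homolog grown on glycerol needing respiration; WST-1 tetrazolium dye reduction as measure of cellular dehydrogenase metabolic activity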
Leucine aminopeptidase = target: T1, Leucine aminopeptidase (Plasmodium falciparum 3D7, UniProt Q8IL11); assay: P. falciparum M17LAP inhibitors, primary screen, biochemical, fluorogenic H-Leu-NHMec substrate, 1536-well (AID 1619); format: functional
T1 sequence (Q8IL11 whole entry): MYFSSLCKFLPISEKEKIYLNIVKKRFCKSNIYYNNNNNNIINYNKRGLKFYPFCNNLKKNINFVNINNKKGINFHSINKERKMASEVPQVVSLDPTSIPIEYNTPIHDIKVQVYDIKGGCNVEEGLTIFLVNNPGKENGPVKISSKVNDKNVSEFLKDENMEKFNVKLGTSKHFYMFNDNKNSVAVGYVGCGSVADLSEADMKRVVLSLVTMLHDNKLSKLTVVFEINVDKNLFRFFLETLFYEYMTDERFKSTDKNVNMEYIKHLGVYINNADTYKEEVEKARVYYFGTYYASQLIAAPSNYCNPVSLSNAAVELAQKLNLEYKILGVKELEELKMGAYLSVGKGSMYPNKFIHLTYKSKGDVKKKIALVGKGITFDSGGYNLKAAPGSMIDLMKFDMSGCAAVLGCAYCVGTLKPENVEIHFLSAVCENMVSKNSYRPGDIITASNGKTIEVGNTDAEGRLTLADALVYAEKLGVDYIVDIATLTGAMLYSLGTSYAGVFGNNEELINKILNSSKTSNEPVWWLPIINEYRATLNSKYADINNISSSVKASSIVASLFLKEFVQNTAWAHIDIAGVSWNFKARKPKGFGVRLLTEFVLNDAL

Insulin-degrading enzyme = target: T2, Insulin-degrading enzyme (Homo sapiens, UniProt P14735); assay: Dose Response: Fluorescence polarization-based cell-based high throughput dose response assay for inhibitors of insulin-degrading enzyme (IDE). [Related pubchem assays: 434962 (Primary screen (IDE inhibitors in singlicate)), 449730 (Counterscreen (Cytotoxicity in triplicate)), 435028 (Confirmation (IDE inhibitors in triplicate)), 434984 (Summary …; format: functional
T2 sequence (P14735 whole entry): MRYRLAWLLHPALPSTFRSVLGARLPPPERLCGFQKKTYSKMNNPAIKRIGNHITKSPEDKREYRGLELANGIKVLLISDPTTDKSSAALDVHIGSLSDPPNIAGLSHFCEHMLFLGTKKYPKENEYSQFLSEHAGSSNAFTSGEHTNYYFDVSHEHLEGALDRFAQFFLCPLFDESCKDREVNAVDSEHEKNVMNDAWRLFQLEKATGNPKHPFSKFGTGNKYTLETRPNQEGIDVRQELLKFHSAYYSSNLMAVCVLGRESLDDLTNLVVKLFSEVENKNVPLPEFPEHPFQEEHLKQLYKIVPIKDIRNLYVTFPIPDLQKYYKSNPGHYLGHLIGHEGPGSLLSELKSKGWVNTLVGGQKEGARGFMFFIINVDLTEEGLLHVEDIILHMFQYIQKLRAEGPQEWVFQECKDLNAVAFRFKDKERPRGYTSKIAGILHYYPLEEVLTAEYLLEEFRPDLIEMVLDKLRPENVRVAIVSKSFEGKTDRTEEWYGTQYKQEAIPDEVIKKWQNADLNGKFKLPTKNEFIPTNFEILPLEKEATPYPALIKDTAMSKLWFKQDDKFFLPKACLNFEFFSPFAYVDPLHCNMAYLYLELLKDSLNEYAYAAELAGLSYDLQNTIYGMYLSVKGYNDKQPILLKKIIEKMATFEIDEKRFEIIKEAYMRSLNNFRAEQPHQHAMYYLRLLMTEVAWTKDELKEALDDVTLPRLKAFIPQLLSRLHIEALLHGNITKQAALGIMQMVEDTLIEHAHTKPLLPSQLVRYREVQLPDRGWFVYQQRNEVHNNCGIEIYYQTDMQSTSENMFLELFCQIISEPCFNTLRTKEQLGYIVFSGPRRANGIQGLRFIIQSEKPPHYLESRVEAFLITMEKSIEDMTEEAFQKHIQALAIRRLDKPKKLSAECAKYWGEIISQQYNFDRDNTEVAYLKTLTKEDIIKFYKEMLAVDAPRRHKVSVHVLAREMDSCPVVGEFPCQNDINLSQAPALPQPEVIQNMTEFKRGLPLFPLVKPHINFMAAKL

[2] = Counterscreen for IDE inhibitors: Luminescence-based cell-based high throughput dose response assay to identify compounds that are cytotoxic to HEK cells. [Related pubchem assays: 434962 (Primary screen (IDE inhibitors in singlicate)), 449730 (Counterscreen (Cytotoxicity in triplicate)), 435028 (Confirmation (IDE inhibitors in triplicate)) …; format: functional; conditions: HEK293
[3] = target: Peroxisome proliferator-activated receptor gamma/Nuclear receptor coactivator 3 (Homo sapiens, UniProt P37231); assay: TR-FRET dose response biochemical High Throughput Screening assay for agonists of the steroid receptor coactivator 3 (SRC-3) recruitment by the peroxisome proliferator-activated receptor gamma (PPAR gamma): non-selective agonists. [Related pubchem assays: 1301 (Confirmation screen.), 1048 (Primary screen.)]; format: functional
[4] = target: Peroxisome proliferator-activated receptor gamma/Nuclear receptor coactivator 2 (Homo sapiens, UniProt P37231); assay: (§1) TR-FRET dose response biochemical High Throughput Screening assay for agonists of the steroid receptor coactivator 2 (SRC-2) recruitment by the peroxisome proliferator-activated receptor gamma (PPAR gamma): non-selective agonists. [Related pubchem assays: 1297, 1032 ]; format: functional
[5] = target: Peroxisome proliferator-activated receptor gamma/Nuclear receptor corepressor 2 (Homo sapiens, UniProt P37231+Q9Y618); format: functional
Sequence of Peroxisome proliferator-activated receptor gamma/Nuclear receptor corepressor 2 (P37231 whole entry): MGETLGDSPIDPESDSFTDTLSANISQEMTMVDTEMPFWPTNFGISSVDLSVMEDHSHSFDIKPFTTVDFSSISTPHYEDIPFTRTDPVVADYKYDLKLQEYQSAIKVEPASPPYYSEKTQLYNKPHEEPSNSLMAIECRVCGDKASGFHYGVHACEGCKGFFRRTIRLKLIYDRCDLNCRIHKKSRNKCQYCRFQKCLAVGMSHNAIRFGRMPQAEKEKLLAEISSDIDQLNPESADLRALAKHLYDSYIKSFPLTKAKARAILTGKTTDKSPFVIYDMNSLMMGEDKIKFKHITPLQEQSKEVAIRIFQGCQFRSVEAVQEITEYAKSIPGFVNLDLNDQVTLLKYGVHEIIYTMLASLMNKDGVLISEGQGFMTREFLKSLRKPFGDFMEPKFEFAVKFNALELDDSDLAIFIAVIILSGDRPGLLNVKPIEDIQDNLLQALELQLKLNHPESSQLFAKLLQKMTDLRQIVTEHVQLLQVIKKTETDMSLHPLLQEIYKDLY
Sequence of Peroxisome proliferator-activated receptor gamma/Nuclear receptor corepressor 2 (Q9Y618 whole entry): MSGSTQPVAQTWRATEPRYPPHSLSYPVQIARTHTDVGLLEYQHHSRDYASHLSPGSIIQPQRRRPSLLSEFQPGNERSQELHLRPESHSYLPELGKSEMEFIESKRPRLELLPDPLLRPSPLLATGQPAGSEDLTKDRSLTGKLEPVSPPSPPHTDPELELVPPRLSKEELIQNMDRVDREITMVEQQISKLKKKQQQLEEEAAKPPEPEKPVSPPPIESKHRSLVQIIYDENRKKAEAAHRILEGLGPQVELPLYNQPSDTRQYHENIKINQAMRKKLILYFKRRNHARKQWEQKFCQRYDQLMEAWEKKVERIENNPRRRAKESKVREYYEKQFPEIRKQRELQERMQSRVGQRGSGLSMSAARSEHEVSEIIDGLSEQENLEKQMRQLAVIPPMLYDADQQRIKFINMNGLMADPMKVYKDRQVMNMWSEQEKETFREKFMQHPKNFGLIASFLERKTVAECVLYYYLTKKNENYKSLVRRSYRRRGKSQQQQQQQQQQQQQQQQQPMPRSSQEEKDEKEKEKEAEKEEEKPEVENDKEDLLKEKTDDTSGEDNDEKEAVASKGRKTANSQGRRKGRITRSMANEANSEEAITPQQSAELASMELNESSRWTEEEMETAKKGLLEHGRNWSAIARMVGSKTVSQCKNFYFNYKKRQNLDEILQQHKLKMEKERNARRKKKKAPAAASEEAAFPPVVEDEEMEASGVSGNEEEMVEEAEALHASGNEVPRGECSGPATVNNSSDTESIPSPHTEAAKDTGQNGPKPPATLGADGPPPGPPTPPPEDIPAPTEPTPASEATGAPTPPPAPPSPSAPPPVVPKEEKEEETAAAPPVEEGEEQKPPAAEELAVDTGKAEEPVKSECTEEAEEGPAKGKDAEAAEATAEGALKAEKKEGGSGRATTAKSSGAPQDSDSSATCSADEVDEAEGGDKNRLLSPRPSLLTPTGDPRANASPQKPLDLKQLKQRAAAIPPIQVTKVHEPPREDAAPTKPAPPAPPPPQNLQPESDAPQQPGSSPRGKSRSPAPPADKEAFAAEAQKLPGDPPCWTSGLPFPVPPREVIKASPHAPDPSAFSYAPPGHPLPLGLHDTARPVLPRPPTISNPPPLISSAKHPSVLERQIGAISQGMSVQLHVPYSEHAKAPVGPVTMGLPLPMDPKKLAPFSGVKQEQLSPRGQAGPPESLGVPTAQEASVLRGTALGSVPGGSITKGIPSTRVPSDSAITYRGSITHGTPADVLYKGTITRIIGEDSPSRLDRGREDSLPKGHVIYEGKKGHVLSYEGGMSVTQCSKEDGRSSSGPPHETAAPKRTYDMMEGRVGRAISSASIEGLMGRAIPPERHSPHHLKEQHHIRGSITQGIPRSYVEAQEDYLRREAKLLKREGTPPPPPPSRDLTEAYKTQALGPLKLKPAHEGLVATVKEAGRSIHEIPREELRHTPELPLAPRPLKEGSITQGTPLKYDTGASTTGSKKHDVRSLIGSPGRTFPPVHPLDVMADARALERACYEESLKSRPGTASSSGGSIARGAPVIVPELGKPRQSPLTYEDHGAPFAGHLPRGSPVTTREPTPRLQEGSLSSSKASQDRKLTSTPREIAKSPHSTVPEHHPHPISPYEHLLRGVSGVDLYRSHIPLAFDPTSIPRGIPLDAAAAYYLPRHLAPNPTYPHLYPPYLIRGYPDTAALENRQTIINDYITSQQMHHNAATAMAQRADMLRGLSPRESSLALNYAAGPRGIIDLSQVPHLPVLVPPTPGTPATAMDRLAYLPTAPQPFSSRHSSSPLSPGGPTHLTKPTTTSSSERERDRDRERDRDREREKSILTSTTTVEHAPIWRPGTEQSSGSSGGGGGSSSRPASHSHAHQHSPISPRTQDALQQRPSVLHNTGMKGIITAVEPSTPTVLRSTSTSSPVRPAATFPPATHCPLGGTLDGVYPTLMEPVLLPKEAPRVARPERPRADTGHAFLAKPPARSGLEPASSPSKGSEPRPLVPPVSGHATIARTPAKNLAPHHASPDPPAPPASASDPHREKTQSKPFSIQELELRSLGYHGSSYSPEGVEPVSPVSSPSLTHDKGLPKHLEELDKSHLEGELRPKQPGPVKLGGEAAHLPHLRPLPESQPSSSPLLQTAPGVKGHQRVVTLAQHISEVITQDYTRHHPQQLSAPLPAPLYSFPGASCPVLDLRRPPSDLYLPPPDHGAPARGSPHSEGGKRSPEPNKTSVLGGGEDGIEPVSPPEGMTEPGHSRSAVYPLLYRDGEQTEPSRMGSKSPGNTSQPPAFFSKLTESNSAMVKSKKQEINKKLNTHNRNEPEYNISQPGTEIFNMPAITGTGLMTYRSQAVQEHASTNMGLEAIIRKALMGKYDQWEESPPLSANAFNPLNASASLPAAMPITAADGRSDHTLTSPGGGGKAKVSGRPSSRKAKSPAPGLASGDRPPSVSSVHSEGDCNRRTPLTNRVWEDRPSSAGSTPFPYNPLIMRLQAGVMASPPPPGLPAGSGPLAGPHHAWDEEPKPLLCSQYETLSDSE

[6] = target: Photoreceptor-specific nuclear receptor (Homo sapiens, UniProt Q9Y5X4); format: functional;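 also: potency for compounds that break the NR2E3 corepressor complex and count as activators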
Sequence of Photoreceptor-specific nuclear receptor (Q9Y5X4 whole entry): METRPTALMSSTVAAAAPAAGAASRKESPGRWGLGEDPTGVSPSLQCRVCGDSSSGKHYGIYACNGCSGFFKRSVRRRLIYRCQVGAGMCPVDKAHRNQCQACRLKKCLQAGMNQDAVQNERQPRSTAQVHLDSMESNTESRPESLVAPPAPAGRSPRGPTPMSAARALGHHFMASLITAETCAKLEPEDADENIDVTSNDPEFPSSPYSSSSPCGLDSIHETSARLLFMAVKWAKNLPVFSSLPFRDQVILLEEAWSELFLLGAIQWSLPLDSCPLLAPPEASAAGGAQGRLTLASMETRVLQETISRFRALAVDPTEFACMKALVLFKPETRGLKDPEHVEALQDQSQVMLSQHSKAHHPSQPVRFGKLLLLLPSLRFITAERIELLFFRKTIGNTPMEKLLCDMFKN

[7] = target: Peroxisome proliferator-activated receptor gamma/Nuclear receptor coactivator 1 (Homo sapiens, UniProt P37231); assay: as §1, with “1 (SRC-1)” for “2 (SRC-2)”, “assays (depositor defined):AID1300, AID1808, AID504735, AID631]” for “assays: 1297, 1032 ]”; format: protein assay
Hexokinase = Hexokinase (Trypanosoma brucei, UniProt Q38C41); assay: Confirmation assay for inhibitors of Trypanosoma brucei hexokinase 1-Analogue-first series. [Related pubchem assays (depositor defined):AID1430, AID1632, AID2516, AID2560, AID2579, AID2600, AID449725, AID492951]; format: functional
Sequence of Hexokinase (Q38C41 whole entry): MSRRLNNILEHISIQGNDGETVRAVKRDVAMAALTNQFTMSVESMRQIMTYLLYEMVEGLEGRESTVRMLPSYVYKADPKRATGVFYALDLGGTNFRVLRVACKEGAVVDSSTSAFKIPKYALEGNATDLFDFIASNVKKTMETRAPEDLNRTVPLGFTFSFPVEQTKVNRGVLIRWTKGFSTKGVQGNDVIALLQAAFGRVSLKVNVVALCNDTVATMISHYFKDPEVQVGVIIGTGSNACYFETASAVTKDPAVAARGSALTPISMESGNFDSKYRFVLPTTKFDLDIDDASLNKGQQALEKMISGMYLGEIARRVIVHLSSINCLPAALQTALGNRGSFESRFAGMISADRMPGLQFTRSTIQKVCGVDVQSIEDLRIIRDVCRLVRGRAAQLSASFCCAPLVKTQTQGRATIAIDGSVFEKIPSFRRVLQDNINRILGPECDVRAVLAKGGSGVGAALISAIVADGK

[8] = A Cell Based Secondary Assay To Explore Cytotoxicity of Compounds that Sensitize Mycobacterium Tuberculosis to Beta-Lactam Antibiotics.; format: functional

Compound: CCN(CC)c1ccc(/C=C(/C#N)C(=O)NC(C)C)o1
- EC50 [1]: > 100 µM (active)
- IC50 (Leucine aminopeptidase): 65.8 µM (active)
- IC50 (Insulin-degrading enzyme): 13.2 µM (not active)
- IC50 [2]: > 55.7 µM (not active)

Compound: O=C(Nc1nc(-c2cccs2)c(C(=O)C(F)(F)F)s1)c1ccco1
- EC50 [3]: > 79.4 µM (not active)
- EC50 [4]: 50 µM (not active)
- IC50 [5]: 2.22 µM (active)
- IC50 [6]: > 39.8 µM (not active)
- EC50 [7]: > 79.4 µM (inactive)

Compound: O=C(O)c1ccccc1NC(=O)c1ccccc1C(=O)O
- IC50 (Hexokinase): > 25 µM (inactive)

Compound: CCOC(=O)c1sc(Nc2nc3c(OC)cccc3s2)cc1C
- CC50 [8]: > 40 µM (active)

Compound: COc1ccc(C(=O)NC(CC(=O)O)c2ccccc2)cc1 (configuration not stated)
- IC50 (Hexokinase): > 25 µM (inactive)
